Consider 6 substances from patent US9498035B2, “Silicone hydrogel contact lenses for sustained release of beneficial polymers” (CooperVision International Holding Company, LP, priority 2012, dated 2016).

Data set [1] is described as follows: Uptake of αPLL of varying molecular weight by Formulation C lenses. Format: physicochemical. The settings on record: 1.8 ml 500 ppm αPLL in PBS, autoclave and overnight storage at room temperature, hydrobromide. The protocol: Solutions of 500 ppm poly-L-lysine hydrobromide (CAS No. 25988-63-0) (αPLL) with varying molecular weight ranges were prepared in PBS. Lenses of Formulation C prepared as described in Example 1 were packaged with 1.8 ml of each solution and autoclaved. After autoclave and overnight storage at room temperature uptake of αPLL was measured.

Data set [2] in a line: Release of αPLL of varying molecular weight from Formulation C lenses. Format: physicochemical. The settings on record: for release between the 6 hour and 24 hour time points (in words): hydrobromide. The protocol: Lenses of Formulations B-E prepared according to Example 1 were used in this study. The lenses were immersed in 1.2 ml of 500 ppm εPLL in PBS for 48 hours as described in Example 3. Excess solution was removed from each lens by gently blotting with an absorbent tissue. Each lens was immersed in 1 ml of ISO 10344 standard saline solution (0.83% sodium chloride, 0.0467% sodium phosphate monobasic, and 0.4486% sodium phosphate dibasic) in a well of a 12-well plate and covered. The plates were shaken at 100 rpm at 37±2° C. At 2, 4, 6, 8, 12, and 24 hours, the solution was removed from each well and replaced with 1 ml of fresh ISO 10344 standard saline solution. HPLC was used to determine the amount of εPLL released from each lens.
Polymer release was tested substantially as described in Example 4, except that the time points tested were at 2, 6, and 24 hr.

“poly-L-lysine hydrobromide [Formulation 30K-70K]” had an uptake in data set [1] of 299 μg/lens.
For the substance “poly-L-lysine hydrobromide [Formulation 4K-15K]”, the uptake in data set [1] was 400 μg/lens. For the same substance, in data set [2], the “release between the 6 hour and 24 hour time points (in words)” value is listed as “significant release”.
“poly-L-lysine hydrobromide [Formulation 70K-150K]” showed an uptake in data set [1] of 185 μg/lens. Moreover, the “release of polymer detected (in words)” value in data set [2] (time points 2, 6, and 24 hr) was “No significant release”.
In data set [1], “poly-L-lysine hydrobromide [Formulation 500-2K]” had an uptake of 122 μg/lens. Also, in data set [2], the “duration of sustained release (in words)” value is given as “sustained for at least two hours”; the “release between the 6 hour and 24 hour time points (in words)” value is given as “no significant release”.
For “poly-L-lysine hydrobromide [Formulation 1K-5K]” the same measures were 142 μg/lens, “sustained for at least two hours” and “no significant release”.
In data set [1], “poly-L-lysine hydrobromide [Formulation 15K-30K]” showed an uptake of 414 μg/lens. For the same substance, the “release between the 6 hour and 24 hour time points (in words)” value in data set [2] is given as “significant release”.
